In experiment [1] the test system is Aβ42. As to the kind of experiment: γ-secretase-modulating activity, Method 2: Aβ42 Alphalisa in supernatant of SKNBE2 cells carrying APP 695-wild type (Table 3b). Format: cell-based. The following applies: overnight. The method in brief: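 SKNBE2 cells expressing wild-type APP695 were incubated overnight at 37° C. with test compound. Secreted Aβ42 was then measured by AlphaLISA, using a C-terminal Aβ42 antibody paired with an N-terminal Aβ antibody. IC50 came from a 4-parameter fit of percent of compound-free control.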
A general note: Alpha assays give light when donor and acceptor beads are brought close together.

Experiment [2] relates to Aβtotal. Description: γ-secretase-modulating activity, Method 2: Aβtotal Alphalisa in supernatant of SKNBE2 cells carrying APP 695-wild type (Table 3b). In kind it is cell-based. To be noted: overnight, read-out: IC50 Aβtot. The method in brief:
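SKNBE2 cells expressing wild-type APP 695 were incubated overnight at 37 °C, 5% CO2 with test compound at a range of concentrations. Aβtotal in supernatant was measured by AlphaLISA sandwich (N-terminal JRF/AβN/25 acceptor, biotinylated mid-region 4G8 donor); IC50 from 4-parameter fit of percent control versus log concentration.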

For experiment [3], the system named is Aβ42. Description: In vivo efficacy, Method 2: brain soluble Aβ42 lowering 4 h after a single oral dose, ELISA (Table 4b). Further details: species or system mouse. The following applies: dose 30 mg/kg oral dosing. The source says:
(§1) To determine whether acute administration of an Aβ42 lowering agent would reduce Aβ42 levels in vivo, non-transgenic rodents, e.g. mice or rats were used. Animals treated with the Aβ42 lowering agent were examined and compared to those untreated or treated with vehicle and brain levels of soluble Aβ42 and total Aβ were quantitated by standard techniques, for example, using ELISA. Treatment periods varied from hours (h) to days and were adjusted based on the results of the Aβ42 lowering once a time course of onset of effect could be established.
(§2) A typical protocol for measuring Aβ42 lowering in vivo is shown but it is only one of many variations that could be used to optimize the levels of detectable Aβ. For example, Aβ42 lowering compounds were formulated in 20% of Captisol® (a sulfobutyl ether of β-cyclodextrin) in water or 20% hydroxypropyl β cyclodextrin. The Aβ42 lowering agents were administered as a single oral dose or by any acceptable route of administration to overnight fasted animals. After 4 h, the animals were sacrificed and Aβ42 levels were analysed.
(§3) Blood was collected by decapitation and exsanguinations in EDTA-treated collection tubes. Blood was centrifuged at 1900 g for 10 minutes (min) at 4° C. and the plasma recovered and flash frozen for later analysis. The brain was removed from the cranium and hindbrain. The cerebellum was removed and the left and right hemisphere were separated. The left hemisphere was stored at −18° C. for quantitative analysis of test compound levels. The right hemisphere was rinsed with phosphate-buffered saline (PBS) buffer and immediately frozen on dry ice and stored at −80° C. until homogenization for biochemical assays.
(§4) Mouse brains from non-transgenic animals were resuspended in 8 volumes of 0.4% DEA (diethylamine)/50 mM NaCl containing protease inhibitors (Roche-11873580001 or 04693159001) per gram of tissue, e.g. for 0.158 g brain, add 1.264 ml of 0.4% DEA. All samples were homogenized in the FastPrep-24 system (MP Biomedicals) using lysing matrix D (MPBio #6913-100) at 6 m/s for 20 seconds. Homogenates were centrifuged at 221.300×g for 50 min. The resulting high speed supernatants were then transferred to fresh eppendorf tubes. Nine parts of supernatant were neutralized with 1 part 0.5 M Tris-HCl pH 6.8 and used to quantify Aβtotal and Aβ42.
(§5) To quantify the amount of Aβtotal and Aβ42 in the soluble fraction of the brain homogenates, Enzyme-Linked-Immunosorbent-Assays were used. Briefly, the standards (a dilution of synthetic Aβ1-40 and Aβ1-42, Bachem) were prepared in 1.5 ml Eppendorf tube in Ultraculture, with final concentrations ranging from 10000 to 0.3 pg/ml. The samples and standards were co-incubated with HRPO-labelled N-terminal antibody for Aβ42 detection and with the biotinylated mid-domain antibody 4G8 for Aβtotal detection. 50 μl of conjugate/sample or conjugate/standards mixtures were then added to the antibody-coated plate (the capture antibodies selectively recognize the C-terminal end of Aβ42, antibody JRF/cAβ42/26, for Aβ42 detection and the N-terminus of Aβ, antibody JRF/rAβ/2, for Aβtotal detection). The plate was allowed to incubate overnight at 4° C. in order to allow formation of the antibody-amyloid complex. Following this incubation and subsequent wash steps the ELISA for Aβ42 quantification was finished by addition of Quanta Blu fluorogenic peroxidase substrate according to the manufacturer's instructions (Pierce Corp., Rockford, Ill.). A reading was performed after 10 to 15 min (excitation 320/emission 420).
In this model at least 20% Aβ42 lowering compared to untreated animals would be advantageous.
(§6) The results are shown in Table 4b (dose 30 mg/kg oral dosing): […]
On the technique in general: An ELISA detects its analyte on a solid surface through an enzyme-linked reagent.

The test system of experiment [4] is Aβtotal. Description: In vivo efficacy, Method 2: brain soluble Aβtotal lowering 4 h after a single oral dose, ELISA (Table 4b). The arrangement: species or system mouse. The following applies: dose 30 mg/kg oral dosing.
Text: as §1, §2, §3, §4, §5
For Aβtotal detection, a Streptavidine-Peroxidase-Conjugate was added, followed 60 min later by an additional wash step and addition of Quanta Blu fluorogenic peroxidase substrate according to the manufacturer's instructions (Pierce Corp., Rockford, Ill.). A reading was performed after 10 to 15 min (excitation 320 nm/emission 420 nm).
as §6

Each structure is given as a SMILES string.

Take `COc1nc(-c2nc(Nc3cccc(C(F)(F)F)c3)n(C)n2)ccc1-n1cnc(C)c1` [Compound 153]: the IC50 (commonly the concentration that gives 50% inhibition) in experiment [1] was 8 nM; in experiment [2], over 10000 nM. The “Aβ42 (% Ctrl) _Mean” value in experiment [3] amounted to 14 % Ctrl. In experiment [4], the “Aβtotal (% Ctrl) _Mean” value was −6 % Ctrl.
Consider `COc1nc(-c2nc(Nc3ccc(F)cc3C(F)(F)F)n(C)n2)ccc1-n1cnc(C)c1` [Compound 158], for which the IC50 was 40 nM in experiment [1] and over 10000 nM in experiment [2]. Also, in experiment [3], the “Aβ42 (% Ctrl) _Mean” value is 44 % Ctrl. For the same molecule, the “Aβtotal (% Ctrl) _Mean” value in experiment [4] worked out at 3 % Ctrl.
On the same counts, the results for `COc1cc(-c2nc(Nc3cccc(C)c3F)n(C)n2)ccc1-n1cnc(C)c1` [Compound 161] are 78 nM, over 10000 nM, 45 % Ctrl and 8 % Ctrl.
Turning to `COc1cc(-c2nc(Nc3cc(C(F)(F)F)ccc3F)n(C)n2)ccc1-n1cnc(C)c1` [Compound 162], the 50% inhibitory concentration (IC50) turned out to be 11 nM in experiment [1] and 3630 nM in experiment [2]. Besides, in experiment [3], the “Aβ42 (% Ctrl) _Mean” value worked out at 35 % Ctrl. Moreover, the “Aβtotal (% Ctrl) _Mean” value in experiment [4] worked out at 2 % Ctrl.
In the case of `COc1nc(-c2nc(Nc3cccc(C(F)(F)F)c3F)n(C)n2)ccc1-n1cnc(C)c1` [Compound 167], the IC50 in experiment [1] is 38 nM; in experiment [2], over 15000 nM. The “Aβ42 (% Ctrl) _Mean” value in experiment [3] came to 52 % Ctrl. The “Aβtotal (% Ctrl) _Mean” value in experiment [4] was −1 % Ctrl.
Turning to `COc1cc(-c2nc(Nc3cccc(Cl)c3C(F)(F)F)n(C)n2)ccc1-n1cnc(C)c1` [Compound 169], the values for the IC50 in experiment [1] and in experiment [2] were 41 nM and over 10000 nM, respectively. In experiment [3], the “Aβ42 (% Ctrl) _Mean” value was 57 % Ctrl. For the same molecule, the “Aβtotal (% Ctrl) _Mean” value in experiment [4] came out at 9 % Ctrl.
The like results for `COc1cc(-c2nc(Nc3cc(C(F)(F)F)ccc3Cl)n(C)n2)ccc1-n1cnc(C)c1` [Compound 177] were, in that order, 10 nM, over 10000 nM, 51 % Ctrl and 11 % Ctrl.
Consider `COc1cc(-c2nc(Nc3cc(N(C)C)ccc3F)n(C)n2)ccc1-n1cnc(C)c1` [Compound 180], for which the IC50 in experiment [1] is 22 nM; in experiment [2], over 10000 nM. For the same molecule, in experiment [3], the “Aβ42 (% Ctrl) _Mean” value worked out at 51 % Ctrl. Also, the “Aβtotal (% Ctrl) _Mean” value in experiment [4] turned out to be 10 % Ctrl.
The like results for `COc1cc(-c2nc(Nc3cccc(OC(F)(F)F)c3)n(C)n2)ccc1-n1cnc(C)c1` [Compound 181] were, in that order, 25 nM, 5750 nM, 28 % Ctrl and 9 % Ctrl.
Regarding `COc1cc(-c2nc(Nc3ccccc3OC(F)(F)F)n(C)n2)ccc1-n1cnc(C)c1.Cl.Cl` [Compound 182], the IC50 stood at 35 nM in experiment [1] and 8510 nM in experiment [2]. For the same molecule, the “Aβ42 (% Ctrl) _Mean” value in experiment [3] was determined as 55 % Ctrl. The “Aβtotal (% Ctrl) _Mean” value in experiment [4] came out at 14 % Ctrl.
Regarding `COc1nc(-c2nc(Nc3cc(OC(F)(F)F)ccc3F)n(C)n2)ccc1-n1cnc(C)c1` [Compound 184], the values for the IC50 in experiment [1] and in experiment [2] were 13 nM and over 15000 nM, respectively. In addition, the “Aβ42 (% Ctrl) _Mean” value in experiment [3] is on record as 69 % Ctrl. Also, the “Aβtotal (% Ctrl) _Mean” value in experiment [4] was determined as 15 % Ctrl.
Take `COc1cc(-c2nc(Nc3cc(OC(F)(F)F)ccc3F)n(C)n2)ccc1-n1cnc(C)c1` [Compound 185]: the IC50 is 17 nM in experiment [1] and over 10000 nM in experiment [2]. Moreover, the “Aβ42 (% Ctrl) _Mean” value in experiment [3] came to 40 % Ctrl. Moreover, the “Aβtotal (% Ctrl) _Mean” value in experiment [4] amounted to 9 % Ctrl.
On to `COc1cc(-c2nc(Nc3cc(C)ccc3C)n(C)n2)ccc1-n1cnc(C)c1` [Compound 198], for which the IC50 in experiment [1] was 13 nM; in experiment [2] it was over 10000 nM. The “Aβ42 (% Ctrl) _Mean” value in experiment [3] was 55 % Ctrl. For the same molecule, the “Aβtotal (% Ctrl) _Mean” value in experiment [4] was found to be 6 % Ctrl.
Take `COc1ccc(C)c(Nc2nc(-c3ccc(-n4cnc(C)c4)c(OC)c3)nn2C)c1` [Compound 199]: the results for the IC50 in experiment [1] and in experiment [2] were 16 nM and over 10000 nM, respectively. Besides, in experiment [3], the “Aβ42 (% Ctrl) _Mean” value was 39 % Ctrl. Besides, the “Aβtotal (% Ctrl) _Mean” value in experiment [4] amounted to 5 % Ctrl.
Take `COc1cc(-c2nc(Nc3cc(C(F)(F)F)cc(OC)c3F)n(C)n2)ccc1-n1cnc(C)c1` [Compound 203]: the values for the IC50 in experiment [1] and in experiment [2] were 10 nM and over 10000 nM, respectively. For the same molecule, the “Aβ42 (% Ctrl) _Mean” value in experiment [3] turned out to be 54 % Ctrl. The “Aβtotal (% Ctrl) _Mean” value in experiment [4] came out at 6 % Ctrl.
`COCc1ccccc1Nc1nc(-c2ccc(-n3cnc(C)c3)c(OC)c2)nn1C.Cl` [Compound 204]: the results for the IC50 in experiment [1] and in experiment [2] were 110 nM and over 10000 nM, respectively. Moreover, the “Aβ42 (% Ctrl) _Mean” value in experiment [3] is listed as 41 % Ctrl. Also, the “Aβtotal (% Ctrl) _Mean” value in experiment [4] was 2 % Ctrl.
On the same counts, the results for `COc1cc(-c2nc(Nc3c(F)ccc(C(F)(F)F)c3F)n(C)n2)ccc1-n1cnc(C)c1` [Compound 211] are 25 nM, over 10000 nM, 32 % Ctrl and −1 % Ctrl.
In the case of `COc1cc(Nc2nc(-c3ccc(-n4cnc(C)c4)c(OC)c3)nn2C)cc(C(F)(F)F)c1` [Compound 213], the IC50 in experiment [1] is 5 nM; in experiment [2], 8910 nM. Besides, the “Aβ42 (% Ctrl) _Mean” value in experiment [3] turned out to be 9 % Ctrl. Also, the “Aβtotal (% Ctrl) _Mean” value in experiment [4] is listed as 7 % Ctrl.
With `COc1cc(-c2nc(Nc3c(F)cccc3OC)n(C)n2)ccc1-n1cnc(C)c1` [Compound 214], the IC50 in experiment [1] is 170 nM; in experiment [2], over 10000 nM. Moreover, the “Aβ42 (% Ctrl) _Mean” value in experiment [3] is −15 % Ctrl. In experiment [4], the “Aβtotal (% Ctrl) _Mean” value is 0 % Ctrl.
For the molecule `COc1ccc(C(F)(F)F)cc1Nc1nc(-c2ccc(-n3cnc(C)c3)c(OC)c2)nn1C` [Compound 217], the IC50 was 26 nM in experiment [1] and 6460 nM in experiment [2]. The “Aβ42 (% Ctrl) _Mean” value in experiment [3] was 35 % Ctrl. For the same molecule, in experiment [4], the “Aβtotal (% Ctrl) _Mean” value was −4 % Ctrl.
Take `COc1cc(-c2nc(Nc3cc(C(C)(C)C)nn3C)n(C)n2)ccc1-n1cnc(C)c1` [Compound 244]: the IC50 in experiment [1] was 83 nM; in experiment [2] it was over 10000 nM. The “Aβ42 (% Ctrl) _Mean” value in experiment [3] is reported as 7 % Ctrl. Further, the “Aβtotal (% Ctrl) _Mean” value in experiment [4] was determined as 5 % Ctrl.
As for `COc1cc(-c2nc3n(n2)CCC[C@H]3c2ccccc2Cl)ccc1-n1cnc(C)c1` [Compound 255], the results for the IC50 in experiment [1] and in experiment [2] were 32 nM and 9330 nM, respectively. Further, the “Aβ42 (% Ctrl) _Mean” value in experiment [3] was 21 % Ctrl. For the same molecule, in experiment [4], the “Aβtotal (% Ctrl) _Mean” value came to 11 % Ctrl.
In the case of `COc1cc(-c2nc3n(n2)CCC[C@@H]3c2ccccc2C(F)(F)F)ccc1-n1cnc(C)c1` [Compound 260], the IC50 is 457 nM in experiment [1] and over 15000 nM in experiment [2]. Besides, the “Aβ42 (% Ctrl) _Mean” value in experiment [3] is −1 % Ctrl. In experiment [4], the “Aβtotal (% Ctrl) _Mean” value is given as −9 % Ctrl.
The like results for `COc1cc(-c2nc3n(n2)CCC[C@H]3c2ccccc2C(F)(F)F)ccc1-n1cnc(C)c1` [Compound 261] were, in that order, 24 nM, over 15000 nM, 46 % Ctrl and 6 % Ctrl.

(Values after patent US8946266B2, “Substituted triazole and imidazole derivatives as gamma secretase modulators” (Janssen Pharmaceuticals, Inc., priority 2009, dated 2015).)
